The values below come from patent US8927024B1, “Antimicrobial polyanhydride nanoparticles” (priority 2009, dated 2015).

For orientation: viability means a per cent measure of how many cells are alive, often set against a control.

“And” between values parts separate entries of the source, which are not always exact repeats. Identical values can stand only once. Like-named read-outs stand apart in the source and are kept apart here.

One experiment concerns Brucella melitensis 16M. The note with it: in vivo; cited from earlier work.
Experiment [1] relates to Mycobacterium avium subsp. paratuberculosis (MAP). Briefly: Viability of MAP in broth culture (% live MAP by flow). To be noted: for viability at 1.25 µg/mL / viability at 10 µg/mL: Mycobacterium avium, read-out: % live MAP (viability of MAP in broth).

As for gentamicin [Free GEN], in the experiment with Brucella melitensis 16M, the “Log CFU/spleen” value is reported as 6.77 ± 0.12 Log CFU/spleen; the “Reduction (log)” value is 0.08 log and 0.04 log; the Spleen wt is 0.86 ± 0.05 g and 0.83 ± 0.26 g.
For `NCC[C@H](O)C(=O)N[C@@H]1C[C@H](N)[C@@H](O[C@H]2O[C@H](CN)[C@@H](O)[C@H](O)[C@H]2O)[C@H](O)[C@H]1O[C@H]1O[C@H](CO)[C@@H](O)[C@H](N)[C@H]1O` [Soluble, amikacin], the “antimicrobial activity in MAP cultures” value in experiment [1] (FIG. 15, 10 μg/mL amikacin) is “minimal antimicrobial activity”. Further, in experiment [1] (24 h), the viability at 1.25 µg/mL came to 93.8% and the viability at 10 µg/mL worked out at 90.1%. In experiment [1] (48 h), the viability at 1.25 µg/mL is 88.4% and the viability at 10 µg/mL is 84.8%.
